Tests used:
Format in all cases: cell-based
[1] = biological target: T1, human EDG8 (S1PR5) receptor (Homo sapiens, UniProt Q9H228); assay: Aequorin assay, agonist potency, CHO-A21-EDG8#12 cells; details: agonist mode, aequorin luminescence; read-out: S1P5 EC50 range #
T1 construct: carries the transgenes human EDG8 (S1PR5) receptor (Acession number NP_110387.1); expressed in transfected cells; host or cells: CHO-A21-EDG8#12 (CHO clone co-expressing mitochondrial aequorin and chimaeric Gaqi5)
Experimental: (§1) Agonistic activity was measured as described below.
(§2) Cell clone CHO-A21-Edg1#17 carries the transgenes human EDG1 (S1PR1) receptor (Accession number NP_001391.2), mitochondrially targeted Aequorin (active part corresponds to accession number 1SL8_A) and chimaeric Gaqi5=Gaq modified with the 5 C-terminal amino-acids replaced with those of the Gai protein (DCGLF). CHO-A2-S1P3 Mix is a cell pool ectopically expressing human EDG3 (S1PR3) receptor (Accession number NP_005217.2) mitochondrially targeted Aequorin (active part has a sequence similar to accession number AY601106.1) and GNA16 (Accession number NP_002059.3). Cell clone CHO-A21-EDG8#12 carries the transgenes human EDG8 (S1PR5) receptor (Acession number NP_110387.1), mitochondrially expressed Aequorin (active part corresponds to accession number 1SL8_A) and chimaeric Gaqi5 (Gaq modified to present the 5 last amino-acids of the Gai protein “DCGLF”; see above). Cells are grown to mid-log phase in culture medium (HAM's F12, 10% FBS, 100 IU/mL penicillin, 100 μg/mL streptomycin, 250 μg/mL Zeocin, 400 μg/mL G418). 18 hours prior to frozen cells preparation, the medium is changed to remove the antibiotics.
(§3) 18 hours prior to the test, vials of frozen cells are quickly thawed in a 37° C. water bath, cells are recovered by centrifugation and resuspended in assay buffer (DMEM/HAM's F12 with HEPES, without phenol red+0.1% fatty acid-free BSA). Cells are gently agitated in suspension overnight at RT in presence of 5 μM of Coelenterazine h (Molecular Probes). On the day of the test, cells are diluted to their final working concentrations in assay buffer and agitated in suspension for 1 h at RT. Cells are then placed in the luminescence reader (Hamamatsu Functional Drug Screening System 6000, FDSS6000). During cells incubation, compounds are prepared in 100% DMSO, and subsequently diluted in assay buffer. Compounds are then dispensed in the assay plate (black, clear-bottom, 384-well plate). After binding of agonists to the human S1P receptor the intracellular calcium concentration increases and binding of calcium to the Aequorin/Coelenterazine complex leads to an oxidation reaction of coelenterazine, which results in the production of Aequorin, coelenteramide, CO2 and light (Dmax 469 nm). The luminescent response is dependent on the agonist concentration. For agonist testing, 30 μL of cell suspension are injected on 30 μL of test compound or reference agonist in the assay plate. The resulting emission of light is recorded for 90 seconds using the FDSS6000. Dose response curves with the reference compounds are performed before testing the compounds. S1P is the reference agonist and JTE-013 the reference antagonist for S1P2.
(§4) Luminescence data are integrated over the reading interval for agonist and antagonist modes. To standardize the emission of recorded light (determination of the “100% signal”) across plates and across different experiments, some of the wells contain 100 μM digitonin or a saturating concentration of ATP (20 μM). Plates also contain the reference agonist at a concentration equivalent to the EC80 obtained during the test validation and the EC100. Dose-response data from test compounds were analyzed with XLfit (IDBS) software using nonlinear regression applied to a sigmoidal dose-response model and the following equation: […]

[2] = biological target: T2, human EDG1 (S1PR1) receptor (Homo sapiens, UniProt P21453); assay: Aequorin assay, agonist potency, CHO-A21-Edg1#17 cells; details: agonist mode, aequorin luminescence; read-out: S1P1 EC50
T2 construct: expressed in transfected cells; host or cells: CHO-A21-Edg1#17 (CHO clone co-expressing mitochondrial aequorin and chimaeric Gaqi5)
Experimental: as §1, §2, §3, §4

S1P4 = biological target: T3, S1P4 (Homo sapiens, UniProt O95977); assay: Aequorin assay, agonist potency, S1P4; details: agonist mode, aequorin luminescence
T3 sequence (O95977 1-384): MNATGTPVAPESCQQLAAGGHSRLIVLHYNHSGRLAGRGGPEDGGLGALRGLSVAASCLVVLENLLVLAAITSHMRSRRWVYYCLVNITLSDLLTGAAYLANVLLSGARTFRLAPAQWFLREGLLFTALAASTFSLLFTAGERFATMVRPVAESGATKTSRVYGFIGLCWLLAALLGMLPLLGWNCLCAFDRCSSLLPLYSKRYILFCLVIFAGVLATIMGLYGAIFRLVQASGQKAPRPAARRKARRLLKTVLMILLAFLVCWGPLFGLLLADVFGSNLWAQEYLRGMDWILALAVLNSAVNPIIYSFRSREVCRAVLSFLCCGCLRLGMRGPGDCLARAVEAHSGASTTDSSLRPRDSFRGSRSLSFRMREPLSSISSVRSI
Experimental: as §1, §3, §4

T2 sequence (P21453 whole entry): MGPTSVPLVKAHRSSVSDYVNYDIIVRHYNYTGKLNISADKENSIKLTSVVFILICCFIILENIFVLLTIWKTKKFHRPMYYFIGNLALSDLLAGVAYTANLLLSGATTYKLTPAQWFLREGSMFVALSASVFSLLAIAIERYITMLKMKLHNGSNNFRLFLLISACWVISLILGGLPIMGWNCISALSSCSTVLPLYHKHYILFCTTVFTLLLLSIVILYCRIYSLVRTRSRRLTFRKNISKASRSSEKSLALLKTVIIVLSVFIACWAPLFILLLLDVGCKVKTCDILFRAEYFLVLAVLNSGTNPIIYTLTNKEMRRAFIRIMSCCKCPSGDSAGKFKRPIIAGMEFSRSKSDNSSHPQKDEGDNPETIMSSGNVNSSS
T1 sequence (Q9H228 whole entry): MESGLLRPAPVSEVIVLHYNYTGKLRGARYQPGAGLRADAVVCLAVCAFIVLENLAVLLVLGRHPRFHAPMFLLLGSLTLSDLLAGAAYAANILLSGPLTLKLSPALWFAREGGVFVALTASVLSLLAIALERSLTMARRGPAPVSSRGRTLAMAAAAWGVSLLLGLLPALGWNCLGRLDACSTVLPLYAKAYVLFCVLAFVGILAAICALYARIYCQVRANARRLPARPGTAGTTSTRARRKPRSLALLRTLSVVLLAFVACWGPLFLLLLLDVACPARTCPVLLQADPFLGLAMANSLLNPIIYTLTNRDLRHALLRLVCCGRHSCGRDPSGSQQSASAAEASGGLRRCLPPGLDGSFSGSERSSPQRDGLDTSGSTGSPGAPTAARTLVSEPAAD

SMILES | EC50 [1] [nM] | EC50 [2] [nM] | EC50 (S1P4) [nM]
CCOc1ccc(C#Cc2ccc3c(c2)CC2(C3)CN(CC3(C(=O)O)CC3)C2)cc1 [Example 1, 1-((5′-((4-ethoxyphenyl)ethynyl)-1′,3′-dihydrospiro[azetidine-3,2′-inden]-1-yl)methyl)cyclopropanecarboxylic acid compound with 2,2,2-trifluoroacetic acid (1:1)] | 1000 to 10000 | – | –
CCCc1ccc(COc2ccc3c(c2)CC2(C3)CN(CC3(C(=O)O)CC3)C2)c(OC)c1 [Example 2, 1-((5′-((2-methoxy-4-propylbenzyl)oxy)-1′,3′-dihydrospiro[azetidine-3,2′-inden]-1-yl)methyl)cyclopropanecarboxylic acid] | 1000 to 10000 | > 1000 | < 1000
CCCCc1ccc(COc2ccc3c(c2)CC2(C3)CN(CC(=O)O)C2)c(Cl)c1 [Example 3, 2-(5′-((4-butyl-2-chlorobenzyl)oxy)-1′,3′-dihydrospiro[azetidine-3,2′-inden]-1-yl)acetic acid] | 1000 to 10000 | > 1000 | < 1000
CCc1ccc(COc2ccc3c(c2)CC2(C3)CN(CC(=O)O)C2)c(Cl)c1 [Example 4, 2-(5′-((2-chloro-4-ethylbenzyl)oxy)-1′,3′-dihydrospiro[azetidine-3,2′-inden]-1-yl)acetic acid] | 100 to 1000 | > 1000 | < 1000
O=C(O)C1CC(N2CC3(Cc4ccc(OCC5CCCOC5)cc4C3)C2)C1 (stereo not shown) [Example 5, 3-(5′-((tetrahydro-2H-pyran-3-yl)methoxy)-1′,3′-dihydrospiro[azetidine-3,2′-inden]-1-yl)cyclobutanecarboxylic acid] | 1000 to 10000 | > 1000 | > 1000
COc1cccc(Cl)c1COc1ccc2c(c1)CC1(C2)CN(CC(=O)O)C1 [Example 9, 2,2,2-trifluoroacetic acid compound with 2-(5′-((2-chloro-6-methoxybenzyl)oxy)-1′,3′-dihydrospiro[azetidine-3,2′-inden]-1-yl)acetic acid (1:1)] | 100 to 1000 | > 1000 | > 1000
COc1cccc(F)c1COc1ccc2c(c1)CC1(C2)CN(CC(=O)O)C1 [Example 10, 2,2,2-trifluoroacetic acid compound with 2-(5′-((2-fluoro-6-methoxybenzyl)oxy)-1′,3′-dihydrospiro[azetidine-3,2′-inden]-1-yl)acetic acid (1:1)] | 100 to 1000 | > 1000 | < 1000
O=C(O)CN1CC2(Cc3ccc(OCc4ccccc4C(F)(F)F)cc3C2)C1 [Example 12, 2,2,2-trifluoroacetic acid compound with 2-(5′-((2-(trifluoromethyl)benzyl)oxy)-1′,3′-dihydrospiro[azetidine-3,2′-inden]-1-yl)acetic acid (1:1)] | 10 to 100 | > 1000 | < 1000
O=C(O)CN1CC2(Cc3ccc(OCc4c(F)cccc4F)cc3C2)C1 [Example 13, 2,2,2-trifluoroacetic acid compound with 2-(5′-((2,6-difluorobenzyl)oxy)-1′,3′-dihydrospiro[azetidine-3,2′-inden]-1-yl)acetic acid (1:1)] | 10 to 100 | > 1000 | < 1000
O=C(O)CN1CC2(Cc3ccc(OCc4ccc(Br)cc4Cl)cc3C2)C1 [Example 22, 2-(5′-((4-bromo-2-chlorobenzyl)oxy)-1′,3′-dihydrospiro[azetidine-3,2′-inden]-1-yl)acetic acid] | 10 to 100 | > 1000 | < 1000
COc1cccc(F)c1COc1ccc2c(c1)CC1(C2)CN(CC2(C(=O)O)CC2)C1 [Example 30, 1-((5′-((2-fluoro-6-methoxybenzyl)oxy)-1′,3′-dihydrospiro[azetidine-3,2′-inden]-1-yl)methyl)cyclopropanecarboxylic acid compound with 2,2,2-trifluoroacetic acid (1:1)] | 1000 to 10000 | > 1000 | > 1000
COc1cccc(Cl)c1COc1ccc2c(c1)CC1(C2)CN(CC2(C(=O)O)CC2)C1 [Example 31, 1-((5′-((2-chloro-6-methoxybenzyl)oxy)-1′,3′-dihydrospiro[azetidine-3,2′-inden]-1-yl)methyl)cyclopropanecarboxylic acid compound with 2,2,2-trifluoroacetic acid (1:1)] | 100 to 1000 | > 1000 | < 1000

More lines, now with the values ahead:

EC50 [1] [nM] | EC50 [2] [nM] | EC50 (S1P4) [nM] | SMILES
≤ 10 | > 1000 | < 1000 | CC1CCC(C#Cc2ccc3c(c2)CC2(C3)CN(CC3(C(=O)O)CC3)C2)CC1 (mixture of isomers) [Example 115, 1-((5′-((4-methylcyclohexyl)ethynyl)-1′,3′-dihydrospiro[azetidine-3,2′-inden]-1-yl)methyl)cyclopropanecarboxylic acid]
≤ 10 | > 1000 | < 1000 | Cc1cccc(F)c1COc1ccc2c(c1)CC1(C2)CN(CC(=O)O)C1 [Example 17, 2,2,2-trifluoroacetic acid compound with 2-(5′-((2-fluoro-6-methylbenzyl)oxy)-1′,3′-dihydrospiro[azetidine-3,2′-inden]-1-yl)acetic acid (1:1)]
≤ 10 | > 1000 | < 1000 | O=C(O)CN1CC2(Cc3ccc(OCc4c(F)cccc4Cl)cc3C2)C1 [Example 18, 2,2,2-trifluoroacetic acid compound with 2-(5′-((2-chloro-6-fluorobenzyl)oxy)-1′,3′-dihydrospiro[azetidine-3,2′-inden]-1-yl)acetic acid (1:1)]
≤ 10 | > 1000 | < 1000 | O=C(O)CN1CC2(Cc3ccc(OCc4c(F)cccc4C(F)(F)F)cc3C2)C1 [Example 19, 2-(5′-((2-fluoro-6-(trifluoromethyl)benzyl)oxy)-1′,3′-dihydrospiro[azetidine-3,2′-inden]-1-yl)acetic acid]
≤ 10 | > 1000 | < 1000 | O=C(O)CN1CC2(Cc3ccc(OCc4c(Cl)cccc4C(F)(F)F)cc3C2)C1 [Example 20, 2,2,2-trifluoroacetic acid compound with 2-(5′-((2-chloro-6-(trifluoromethyl)benzyl)oxy)-1′,3′-dihydrospiro[azetidine-3,2′-inden]-1-yl)acetic acid (1:1)]
≤ 10 | > 1000 | < 1000 | CCc1cccc(F)c1COc1ccc2c(c1)CC1(C2)CN(CC(=O)O)C1 [Example 21, 2-(5′-((2-ethyl-6-fluorobenzyl)oxy)-1′,3′-dihydrospiro[azetidine-3,2′-inden]-1-yl)acetic acid]
≤ 10 | > 1000 | < 1000 | O=C(O)CN1CC2(Cc3ccc(OCc4cc(F)ccc4C(F)(F)F)cc3C2)C1 [Example 27, 2-(5′-((5-fluoro-2-(trifluoromethyl)benzyl)oxy)-1′,3′-dihydrospiro[azetidine-3,2′-inden]-1-yl)acetic acid]

Reference: patent US20200055817A1 (AbbVie Deutschland GmbH & Co. KG, priority 2016, published 2020)
